{"source": "paper PMC10892120", "about": "“Design, Synthesis and Biological Assessment of N′-(2-Oxoindolin-3-ylidene)-6-methylimidazo[2,1-b]thiazole-5-carbohydrazides as Potential Anti-Proliferative Agents toward MCF-7 Breast Cancer” (Pharmaceuticals, 2024)", "key": {"[1]": {"system": "MCF-10A", "assay": "MTT assay, cytotoxicity toward MCF-10A", "assay_type": "cell-based", "details": "Homo sapiens", "protocol": "The developed compounds were evaluated in vitro using the MTT cell viability assay following the published techniques (Supplementary Data, page 42). […]\nThe 96 well tissue culture plate was seeded with 1 X 10^5 cells / ml (100 ul / well) and cultured at 37 degrees Celsius for 24 hours to form a full monolayer sheet. After forming a confluent sheet of cells, growth medium was decanted from 96 well micro titer plates, the cell monolayer was washed twice with wash media, and two-fold dilutions of the tested sample were prepared in RPMI medium with 2% serum (maintenance medium). In each well, 0.1 ml of each dilution was examined, with three wells serving as controls and receiving only maintenance media.\nThe plate was incubated at 37 degrees Celsius and then analyzed. Cells were examined for any physical evidence of toxicity, such as partial or total monolayer loss, rounding, shrinkage, or cell granulation. MTT solution (5mg/ml in PBS) was prepared (BIO BASIC CANADA INC), and 20ul MTT solution was added to each well. Shake the MTT into the medium for 5 minutes at 150rpm on a shaking table. Incubate for 4 hours (37°C, 5% CO2) to allow the MTT to be digested. Remove the media. (If required, dry plate on paper towels to remove residue. In 200ul DMSO, resuspend formazan (MTT metabolic product). Shake at 150rpm for 5 minutes to properly mix the formazan into the solvent. At 560nm, measure optical density and subtract background at 620nm. The optical density should be proportional to the number of cells. MCF-7 and MCF-10A cell lines were provided with 10% fetal bovine serum (FBS, Sigma-Aldrich, MO, USA). Data are presented as the mean of the IC50 values ± SD from three different experiments. […]"}, "[2]": {"target": "VEGFR-2 (Homo sapiens, UniProt P35968)", "sequence (P35968 20-1356)": "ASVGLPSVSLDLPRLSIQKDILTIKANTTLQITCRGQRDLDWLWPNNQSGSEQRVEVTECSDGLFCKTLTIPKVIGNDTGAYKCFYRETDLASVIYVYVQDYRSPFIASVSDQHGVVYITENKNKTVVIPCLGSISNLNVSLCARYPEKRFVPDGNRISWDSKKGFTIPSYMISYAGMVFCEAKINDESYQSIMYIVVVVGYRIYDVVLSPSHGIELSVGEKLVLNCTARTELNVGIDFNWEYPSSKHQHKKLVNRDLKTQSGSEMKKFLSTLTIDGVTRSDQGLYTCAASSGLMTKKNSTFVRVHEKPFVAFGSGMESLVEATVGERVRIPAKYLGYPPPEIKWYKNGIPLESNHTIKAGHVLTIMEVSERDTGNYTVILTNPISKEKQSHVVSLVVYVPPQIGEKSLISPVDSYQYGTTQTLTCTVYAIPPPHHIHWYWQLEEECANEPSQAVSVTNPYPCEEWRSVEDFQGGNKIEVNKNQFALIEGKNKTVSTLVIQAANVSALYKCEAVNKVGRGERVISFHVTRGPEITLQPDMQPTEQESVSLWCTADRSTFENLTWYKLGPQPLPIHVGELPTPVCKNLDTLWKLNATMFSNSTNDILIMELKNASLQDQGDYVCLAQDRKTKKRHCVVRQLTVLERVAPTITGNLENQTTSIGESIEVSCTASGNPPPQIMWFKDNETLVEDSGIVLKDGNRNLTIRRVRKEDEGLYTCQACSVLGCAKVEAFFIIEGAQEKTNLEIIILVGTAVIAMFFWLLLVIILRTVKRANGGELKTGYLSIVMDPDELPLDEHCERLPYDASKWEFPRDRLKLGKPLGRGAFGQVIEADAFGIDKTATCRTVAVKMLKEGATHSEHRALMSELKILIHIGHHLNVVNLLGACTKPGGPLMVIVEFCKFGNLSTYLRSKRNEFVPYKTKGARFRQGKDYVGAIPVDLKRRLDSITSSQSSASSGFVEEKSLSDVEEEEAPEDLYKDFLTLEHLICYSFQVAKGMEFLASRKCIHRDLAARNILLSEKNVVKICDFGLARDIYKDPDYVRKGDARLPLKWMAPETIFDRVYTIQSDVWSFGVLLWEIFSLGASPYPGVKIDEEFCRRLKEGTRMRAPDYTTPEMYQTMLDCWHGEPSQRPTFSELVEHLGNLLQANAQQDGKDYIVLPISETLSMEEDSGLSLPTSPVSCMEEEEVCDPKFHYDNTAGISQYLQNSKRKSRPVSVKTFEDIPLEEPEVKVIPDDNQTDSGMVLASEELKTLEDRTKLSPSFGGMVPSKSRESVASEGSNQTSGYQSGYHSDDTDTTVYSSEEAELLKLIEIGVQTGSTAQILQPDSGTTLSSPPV", "assay": "In vitro VEGFR-2 kinase inhibition assay", "assay_type": "biochemical", "details": "mean ± SD of three experiments"}, "[3]": {"system": "Bax", "assay": "RT-PCR gene expression in treated MCF-7 cells: Bax", "assay_type": "cell-based", "details": "treated MCF-7 cells vs untreated control MCF-7 (=1)", "protocol": "(§1) The gene expression levels of apoptosis genes in MCF-7 cells were measured using RT-PCR to validate the apoptosis-inducing behaviors of the potent lead compound 6i in MCF-7 cells.\n(§2) The gene expression levels of apoptosis genes were evaluated in MCF-7 cells using the following approaches in the Supplementary Data, page 43.\n(§3) Inhibitor solution of each well labeled as “Test Inhibitor”. For the “Positive Control\" and “Blank”, add 5 μl of the same solution without inhibitor (Inhibitor buffer). Prepare 3 ml of 1x Kinase Buffer 1 by mixing 600 μl of 5x Kinase Buffer 1 with 2400 μl water. 3 ml of 1x Kinase Buffer 1 is sufficient for 100 reactions. To the wells designated as \"Blank\", add 20 μl of 1x Kinase Buffer 1.\n(§4) Thaw VEGFR2 enzyme on ice. Upon first thaw, briefly spin tube containing enzyme to recover full content of the tube. Calculate the amount of VEGFR2 required for the assay and dilute enzyme to 1 ng/μl with 1x Kinase Buffer 1. Store remaining undiluted enzyme in aliquots at -80°C. Note:\n(§5) VEGFR2 enzyme is sensitive to freeze/thaw cycles. Avoid multiple freeze/thaw cycles. […]\n(§6) use thawed aliquots or diluted enzyme. […]\n(§7) thoroughly, and then centrifuge at 4°C to collect contents to the bottom of the tube. […] Preparation of a reaction cocktail is crucial in quantitative PCR applications to reduce pipetting errors and maximize assay precision and accuracy. […]"}, "[4]": {"system": "Caspase-8", "assay": "RT-PCR gene expression in treated MCF-7 cells: caspase 8", "assay_type": "cell-based", "details": "treated MCF-7 cells vs untreated control MCF-7 (=1)", "protocol": "as §1, §2, §3, §4, §5, §6, §7"}, "[5]": {"system": "Caspase-9", "assay": "RT-PCR gene expression in treated MCF-7 cells: caspase 9", "assay_type": "cell-based", "details": "treated MCF-7 cells vs untreated control MCF-7 (=1)", "protocol": "as §1, §2, §3, §4, §5, §6, §7"}, "[6]": {"system": "Cytochrome C", "assay": "RT-PCR gene expression in treated MCF-7 cells: cytochrome C", "assay_type": "cell-based", "details": "treated MCF-7 cells vs untreated control MCF-7 (=1)", "protocol": "as §1, §2, §3, §4, §5, §6, §7"}, "[7]": {"system": "Bcl-2", "assay": "RT-PCR gene expression in treated MCF-7 cells: Bcl-2", "assay_type": "cell-based", "details": "treated MCF-7 cells vs untreated control MCF-7 (=1)", "protocol": "as §1, §2, §3, §4, §5, §6, §7"}}, "data": [{"smiles": "CCCCN1C(=O)C(=NNC(=O)c2c(C)nc3sccn23)c2ccccc21", "note": "[Compound 6i, N′-(1-Butyl-2-oxoindolin-3-ylidene)-6-methylimidazo[2,1-b]thiazole-5-carbohydrazide]", "values": [{"measurement": "IC50", "setting": "[1]", "result": "54.6 ± 1.29", "unit": "µM"}, {"measurement": "IC50", "setting": "[2]", "result": "0.33 ± 0.01", "unit": "µM"}, {"measurement": "RT-PCR Fold Change Bax", "setting": "[3]", "result": 4.337, "unit": "fold"}, {"measurement": "RT-PCR Fold Change Caspase-8", "setting": "[4]", "result": 2.727, "unit": "fold"}, {"measurement": "RT-PCR Fold Change Caspase-9", "setting": "[5]", "result": 4.947, "unit": "fold"}, {"measurement": "RT-PCR Fold Change Cytochrome C", "setting": "[6]", "result": 2.420, "unit": "fold"}, {"measurement": "RT-PCR Fold Change Bcl-2", "setting": "[7]", "result": 0.359, "unit": "fold"}]}]}
